Measurements: US7731985B2, “4-aminopyrimidines and their use for the antimicrobial treatment of surfaces” (Ciba Specialty Chemicals Corporation, priority 2002, dated 2010)

What was measured:
Assay in all cases: MIC in microtitre plates (Example 10)
Assay type in all cases: cell-based
Design in all cases: unit not given here
Conditions in all cases: microtitre plate, 48 hours at 37° C., ≦20% growth
[1] = test system: Staphylococcus aureus ATCC 9144 (=SA)
Method: (§1) Determination of the Minimum Inhibitory Concentration (MIC Value) in Microtitre Plates Casein/soymeal peptone broth for preparation of pre-cultures of test bacteria and yeast Bacteria: • Pseudomonas aeruginosa CIP A-22 (=PA) • Escherichia coli NCTC 8196 (=EC) • Staphylococcus aureus ATCC 9144 (=SA) • Candida albicans ATCC 10231 (=CA) The test substances are pre-dissolved in dimethyl sulfoxide (DMSO) and tested in a dilution series of 1:2. Bacteria and yeast are cultured overnight in CASO broth. All the test organism suspensions are adjusted to an organism count of 1-5×10^6 CFU/ml using […] sodium chloride solution. The test substances are pre-pipetted into microtitre plates in amounts of 8 μl per well. The pre-adjusted organism suspensions are diluted 1:100 in CASO broth and are added in amounts of 192 μl per well to the test substances. The test batches are incubated for 48 hours at 37° C. The incubation, the growth is determined on the basis of the turbidity of the test batches (optical density) at 620 nm in a microplate reader. The minimum inhibitory concentration (MIC value) is the concentration of substance at which (compared to the growth of the control) an appreciable inhibition of growth (≦20% growth) of the test organisms is observed. Three microtitre plates are used for each test organism and substance concentration. All the substances are tested in duplicate.

[2] = test system: Pseudomonas aeruginosa CIP A-22 (=PA)
Method: as §1

[3] = test system: Candida albicans ATCC 10231 (=CA)
Method: as §1

[4] = test system: Escherichia coli NCTC 8196 (=EC)
Method: as §1

SMILES | MIC SA [1] | MIC PA [2] | MIC CA [3] | MIC EC [4]
CCCCCCNc1cc(C)nc(C2CC2)n1 [compound 116] | 7.5 | >120 | 15 | 60
Cc1ccc(-c2nc(-c3ccccc3)nc(NCCCN(C)CCCN)c2-c2ccccc2)cc1 [compound 12] | 7.5 | 7.5 | 7.5 | 3.75
Cc1cc(NCc2ccco2)nc(-c2cccnc2)n1 [compound 51] | 30 | >120 | >120 | >120
CNCCN(C)c1nc(-c2ccccc2)nc(-c2ccccc2OC)c1-c1ccccc1 [compound 26] | 60 | >120 | >120 | 60
Cc1ccc(-c2nc(-c3ccccc3)nc(NCCCN3CCN(CCCN)CC3)c2-c2ccccc2)cc1 [compound 14] | 15 | 30 | 15 | 3.75
CCCCN(CCCC)c1cc(C)nc(-c2cccnc2)n1 [compound 54] | 15 | >120 | 120 | >120
CCCCC(CC)CNc1cc(C)nc(-c2ccc(C)c(F)c2)n1 (centres unmarked) [compound 140] | 15 | >120 | 120 | >120
FC(F)(F)c1cccc(-c2cc(N3CCC(CCCC4CCNCC4)CC3)ncn2)c1 [compound 30] | 60 | >120 | 15 | 30
Cc1cc(NC(C)CC(C)C)nc(-c2cccnc2)n1 (centres unmarked) [compound 41] | 30 | >120 | 60 | >120
CCCCC(CC)CNc1cc(C)nc(-c2cccs2)n1 (centres unmarked) [compound 132] | 60 | >120 | >120 | >120
COc1cccc(-c2nc(-c3ccccc3)nc(NCCCN(C)CCCN)c2-c2ccccc2)c1 [compound 24] | 30 | 30 | 30 | 15
Cc1ccc(-c2nc(-c3ccccc3)nc(N3CCC(CCCC4CCNCC4)CC3)c2-c2ccccc2)cc1 [compound 15] | 15 | >120 | >120 | >120
CCCCN(C)c1cc(C)nc(-c2cccnc2)n1 [compound 53] | 60 | >120 | 120 | >120
COc1ccccc1-c1nc(-c2ccccc2)nc(N2CCN(CCN)CC2)c1-c1ccccc1 [compound 27] | 30 | >120 | 60 | 30
Cc1cc(N2CCOCC2)nc(-c2cccnc2)n1 [compound 50] | 120 | >120 | >120 | >120
CCCCN(C)c1cc(C)nc(-c2ccc(C)c(F)c2)n1 [compound 130] | 120 | >120 | >120 | >120
CCCCN(C)c1cc(C)nc(-c2csc(C)n2)n1 [compound 129] | 120 | >120 | 120 | >120
Cc1cc(NC(C)CC(C)C)nc(-c2ccccc2)n1 (centres unmarked) [compound 141] | 120 | >120 | >120 | >120
COCC(C)Nc1cc(C)nc(-c2cccnc2)n1 (centres unmarked) [compound 43] | 60 | >120 | 120 | >120
Cc1cc(N(C)CCO)nc(-c2cccnc2)n1 [compound 55] | 120 | >120 | >120 | >120
CCCCN(C)c1cc(C)nc(C(C)C)n1 [compound 128] | 120 | >120 | 120 | >120
CCCCN(C)c1cc(C)nc(-c2ccc(C(C)(C)C)cc2)n1 [compound 123] | 120 | >120 | >120 | >120
NCCOCCOCCNc1nc(-c2ccccc2)nc(-c2cccc(C(F)(F)F)c2)c1-c1ccccc1 [compound 22] | 15 | >120 | 7.5 | 15

More lines, now with the values ahead:

MIC SA [1] | MIC PA [2] | MIC CA [3] | MIC EC [4] | SMILES
15 | 120 | 30 | 30 | CCCCCCCCCCCNc1cc(C)nc(-c2cccnc2)n1 [compound 35]
15 | >120 | 30 | 30 | NCCCCCCCCCCCCNc1cc(-c2cccc3ccccc23)ncn1 [compound 29]
60 | >120 | 60 | 120 | CCCCNc1cc(C)nc(-c2cccnc2)n1 [compound 32]
7.5 | >120 | 120 | >120 | CCCCCCNc1cc(C)nc(-c2ccc(C)cc2)n1 [compound 115]
7.5 | >120 | 15 | 15 | CCCCCCCCCCNc1cc(C)nc(-c2ccc(C)c(F)c2)n1 [compound 107]
15 | >120 | 15 | 30 | CCCCCCCCCCCCNc1cc(C)nc(-c2ccc(C)c(F)c2)n1 [compound 95]
15 | >120 | 30 | 15 | CCCCCCCCCCNc1cc(C)nc(-c2ccccc2)n1 [compound 99]
15 | >120 | 30 | 60 | CCCCCCNc1cc(C)nc(-c2ccc(C(C)(C)C)cc2)n1 [compound 109]
7.5 | >120 | 60 | 120 | CCCCCCNc1cc(C)nc(-c2ccccc2)n1 [compound 111]
120 | >120 | 120 | >120 | CCCCCCCCNc1cc(C)nc(-c2cccc(C)c2)n1 [compound 60]
15 | <120 | 7.5 | 15 | CCCCCCCCCCCCNc1cc(C)nc(-c2ccncc2)n1 [compound 88]
<3.75 | >120 | 7.5 | 15 | CCCCCCCCCCCCCCNc1cc(C)nc(-c2csc(C)n2)n1 [compound 82]
7.5 | 60 | 7.5 | 15 | CCCCCCCCCCCCNc1cc(C)nc(-c2cccnc2)n1 [compound 36]
60 | >120 | 120 | 120 | CCCCCCCCNc1cc(C)nc(-c2cccc(OC)c2)n1 [compound 62]
7.5 | >120 | 7.5 | 15 | CCCCCCCCCCCCCCNc1cc(C)nc(-c2ccc(-c3ccccc3)cc2)n1 [compound 71]
7.5 | >120 | 7.5 | 7.5 | CCCCCCCCCCNc1cc(C)nc(C)n1 [compound 101]
30 | >120 | 60 | >120 | CCCCCCNc1cc(C)nc(-c2cccnc2)n1 [compound 33]
<3.75 | >120 | 7.5 | 15 | CCCCCCCCCCCCNc1cc(C)nc(C2CC2)n1 [compound 92]
120 | >120 | 120 | >120 | CCCCN(C)c1cc(C)nc(-c2ccncc2)n1 [compound 125]
60 | >120 | 120 | >120 | CCCNc1cc(C)nc(-c2cccnc2)n1 [compound 31]
15 | >120 | 60 | 120 | CCCCCCCCNc1cc(C)nc(-c2ccc(C(C)(C)C)cc2)n1 [compound 58]
15 | >120 | 15 | 30 | CCCCCCCCCCNc1cc(C)nc(-c2ccc(-c3ccccc3)cc2)n1 [compound 96]
7.5 | >120 | 120 | >120 | CCCCC(CC)CNc1cc(C)nc(-c2ccncc2)n1 (centres unmarked) [compound 134]
7.5 | >120 | 15 | 15 | CCCCCCCCCCNc1cc(C)nc(-c2ccc(-c3ccccc3)cc2)n1 [compound 97]
